Data taken from US12383545B1, “Treatment of migraine” (priority 2018, dated 2025).

How the values were obtained:
Assay type in all cases: in vivo, human
[1] = system: participants with episodic migraine; experiment: Study A: Headache Impact Test (HIT-6); settings: for HIT-6 change from baseline to week 12, MMRM LS mean change (SE) / HIT-6 change from baseline to week 12, mean (SD) / HIT-6 score, Week 12, mean (SD): mITT
Procedure: In embodiments, the present disclosure provides a method for preventing migraine (such as a method for preventing migraine in patients having fewer than fifteen migraine days per month) wherein atogepant is administered in an amount of 10 mg QD, 30 mg QD, or 60 mg QD, wherein administration of atogepant results in a reduction in a 6-item Headache Impact Test (HIT-6) disability score relative to baseline. The Headache Impact Test (HIT-6) is a well-known tool for assessing migraine intensity, and uses six questions to measure the adverse impact of headache on, for example, social functioning, role functioning, vitality, cognitive functioning, and psychological distress. Responses are based on frequency using a 5-point verbal response scale ranging from “never” to “always”. The HIT-6 total score is the sum of the responses, and ranges from 36 to 78. See Yang et al., Validation of the Headache Impact Test (HIT-6™) Across Episodic and Chronic Migraine, Cephalalgia 2011 February; 31 (3): 357-367. In embodiments, treatment with atogepant results in a greater than five (≥5) point decrease in HIT-6 disability score.
The Headache Impact Test (HIT-6, completed monthly) represented an additional exploratory measure. The HIT-6 test is a well-known tool for assessing migraine intensity that uses six questions to capture the impact of headache and its treatment on an individual's functional health and well-being. HIT-6 was completed monthly and was evaluated as the change from baseline in HIT-6 total score at weeks 4, 8, and 12.

[2] = system: participants with episodic migraine; experiment: Study C: 40-week open-label extension, safety and tolerability of atogepant 60 mg once daily
Procedure: An open-label extension study for trial completers evaluated the long-term safety and tolerability of oral atogepant 60 mg daily for the prevention of migraine in participants with episodic migraine.
Participants in this trial (Study C) rolled over from the lead in trial (Study A) and were treated with atogepant 60 mg once daily for 40-weeks, with a 4-week safety follow-up period. Only safety data were collected.
Of 695 participants screened, a total of 685 participants took at least one dose of study medication and were included in the safety population. Overall, the mean age was 41.8 years. Female participants accounted for 88.2% of the Safety Population. White and Black or African American patients accounted for 84.4% and 12.6%, respectively. Mean BMI was 30.58 kg/m2.

Bilirubin Total = experiment: Example 5: postbaseline hepatic laboratory parameter values of clinical interest, Bilirubin Total; settings: safety population
Text: This study consisted of a 4-week screening and baseline period and a 12-week double-blind treatment period, which was followed by a 4-week safety follow-up period. Total study duration is 20-weeks.
To be randomized, eligible patients had to be 18 to 75 years of age (inclusive), have a history of migraine with or without aura for at least 1 year consistent with a diagnosis according to the International Classification of Headache Disorders criteria, 3rd edition, beta version, have experienced 4 to 14 migraine/probable migraine headache days and <15 headache days in the 28-day baseline period. Patients who had clinically significant hematologic, endocrine, cardiovascular, cerebrovascular, pulmonary, renal, hepatic, gastrointestinal, or neurologic disease were excluded from the study.
A total of 834 patients were randomized to double-blind treatment (ITT population), and 825 patients took at least 1 dose of double-blind IP (safety population). […] The primary efficacy variable was the change from baseline in mean monthly migraine/probable migraine headache days across the 12-week treatment period. The secondary efficacy variables were the change from baseline in mean monthly headache days across the 12-week treatment period, proportion of patients with at least a 50% reduction in mean monthly migraine/probable migraine headache days across the 12-week treatment period, and the change from baseline in mean monthly acute medication use days across the 12-week treatment period.

[3] = Atogepant 60 mg QD, Safety Population N = 685

## C[C@@H]1[C@H](c2c(F)ccc(F)c2F)C[C@H](NC(=O)c2cnc3c(c2)C[C@@]2(C3)C(=O)Nc3ncccc32)C(=O)N1CC(F)(F)F [atogepant]
[1]; 10 mg QD
  HIT-6 change to week 12, LSMD vs placebo (95% CI): −3.2
  HIT-6 change from baseline to week 12, MMRM LS mean change (SE): −8.4
  HIT-6 change from baseline to week 12, mean (SD): −8.3
  HIT-6 score, Week 12, mean (SD): 55.8
[1]; 10 mg QD, Week 4
  HIT-6 responders (≥5 point reduction), n/N (%): (48.6) %
  HIT-6 responders, odds ratio vs. placebo (95% CI): 1.53
[1]; 10 mg QD, Week 8
  HIT-6 responders (≥5 point reduction), n/N (%): (60.4) %
  HIT-6 responders, odds ratio vs. placebo (95% CI): 1.79
[1]; 10 mg QD, Week 12
  HIT-6 responders (≥5 point reduction), n/N (%): (64.5) %
  HIT-6 responders, odds ratio vs. placebo (95% CI): 1.74
[1]; 30 mg QD
  HIT-6 change to week 12, LSMD vs placebo (95% CI): −2.9
  HIT-6 change from baseline to week 12, MMRM LS mean change (SE): −8.1
  HIT-6 change from baseline to week 12, mean (SD): −8.1
  HIT-6 score, Week 12, mean (SD): 56.1
[1]; 30 mg QD, Week 4
  HIT-6 responders (≥5 point reduction), n/N (%): (46.8) %
  HIT-6 responders, odds ratio vs. placebo (95% CI): 1.43
[1]; 30 mg QD, Week 8
  HIT-6 responders (≥5 point reduction), n/N (%): (62.2) %
  HIT-6 responders, odds ratio vs. placebo (95% CI): 1.95
[1]; 30 mg QD, Week 12
  HIT-6 responders (≥5 point reduction), n/N (%): (62.7) %
  HIT-6 responders, odds ratio vs. placebo (95% CI): 1.54
[1]; 60 mg QD
  HIT-6 change to week 12, LSMD vs placebo (95% CI): −4.0
  HIT-6 change from baseline to week 12, MMRM LS mean change (SE): −9.2
  HIT-6 change from baseline to week 12, mean (SD): −9.9
  HIT-6 score, Week 12, mean (SD): 54.5
[1]; 60 mg QD, Week 4
  HIT-6 responders (≥5 point reduction), n/N (%): (56.2) %
  HIT-6 responders, odds ratio vs. placebo (95% CI): 2.18
[1]; 60 mg QD, Week 8
  HIT-6 responders (≥5 point reduction), n/N (%): (64.7) %
  HIT-6 responders, odds ratio vs. placebo (95% CI): 2.25
[1]; 60 mg QD, Week 12
  HIT-6 responders (≥5 point reduction), n/N (%): (65.2) %
  HIT-6 responders, odds ratio vs. placebo (95% CI): 1.77
[2]; 60 mg once daily, 40 weeks
  deaths observed: No deaths
[2]; [3]
  TEAE by Preferred Term: Corona virus infection: 15 (2.2) n (%)
  TEAE by Preferred Term: Influenza: 17 (2.5) n (%)
[2]; atogepant 60 mg once daily, 40 weeks, Safety Population N = 685
  Deaths, participants: (0.0) %
Bilirubin Total; Atogepant 10 mg QD (N = 93)
  Participants with postbaseline Bilirubin Total (umol/L) >=1 * ULN, (%): (3.3) %
  Participants with postbaseline Bilirubin Total (umol/L) >=1 * ULN, n/N1: 3/92
  Participants with postbaseline Bilirubin Total (umol/L) >=1.5 * ULN, (%): (1.1) %
  Participants with postbaseline Bilirubin Total (umol/L) >=1.5 * ULN, n/N1: 1/92
  Participants with postbaseline Bilirubin Total (umol/L) >=2 * ULN, n/N1: 0
  Participants with postbaseline Bilirubin Total (umol/L) >=3 * ULN, n/N1: 0
  Participants with postbaseline Bilirubin Total (umol/L) >=5 * ULN, n/N1: 0
  Participants with postbaseline Bilirubin Total (umol/L) >=10 * ULN, n/N1: 0
  Participants with postbaseline Bilirubin Total (umol/L) >=20 * ULN, n/N1: 0
Bilirubin Total; Atogepant 30 mg BID (N = 86)
  Participants with postbaseline Bilirubin Total (umol/L) >=1 * ULN, (%): (3.6) %
  Participants with postbaseline Bilirubin Total (umol/L) >=1 * ULN, n/N1: 3/84
  Participants with postbaseline Bilirubin Total (umol/L) >=1.5 * ULN, (%): (1.2) %
  Participants with postbaseline Bilirubin Total (umol/L) >=1.5 * ULN, n/N1: 1/84
  Participants with postbaseline Bilirubin Total (umol/L) >=2 * ULN, n/N1: 0
  Participants with postbaseline Bilirubin Total (umol/L) >=3 * ULN, n/N1: 0
  Participants with postbaseline Bilirubin Total (umol/L) >=5 * ULN, n/N1: 0
  Participants with postbaseline Bilirubin Total (umol/L) >=10 * ULN, n/N1: 0
  Participants with postbaseline Bilirubin Total (umol/L) >=20 * ULN, n/N1: 0
Bilirubin Total; Atogepant 30 mg QD (N = 183)
  Participants with postbaseline Bilirubin Total (umol/L) >=1 * ULN, (%): (8.4) %
  Participants with postbaseline Bilirubin Total (umol/L) >=1 * ULN, n/N1: 15/179
  Participants with postbaseline Bilirubin Total (umol/L) >=1.5 * ULN, (%): (1.1) %
  Participants with postbaseline Bilirubin Total (umol/L) >=1.5 * ULN, n/N1: 2/179
  Participants with postbaseline Bilirubin Total (umol/L) >=2 * ULN, n/N1: 0
  Participants with postbaseline Bilirubin Total (umol/L) >=3 * ULN, n/N1: 0
  Participants with postbaseline Bilirubin Total (umol/L) >=5 * ULN, n/N1: 0
  Participants with postbaseline Bilirubin Total (umol/L) >=10 * ULN, n/N1: 0
  Participants with postbaseline Bilirubin Total (umol/L) >=20 * ULN, n/N1: 0
Bilirubin Total; Atogepant 60 mg BID (N = 91)
  Participants with postbaseline Bilirubin Total (umol/L) >=1 * ULN, (%): (1.1) %
  Participants with postbaseline Bilirubin Total (umol/L) >=1 * ULN, n/N1: 1/88
  Participants with postbaseline Bilirubin Total (umol/L) >=1.5 * ULN, n/N1: 0
  Participants with postbaseline Bilirubin Total (umol/L) >=2 * ULN, n/N1: 0
  Participants with postbaseline Bilirubin Total (umol/L) >=3 * ULN, n/N1: 0
  Participants with postbaseline Bilirubin Total (umol/L) >=5 * ULN, n/N1: 0
  Participants with postbaseline Bilirubin Total (umol/L) >=10 * ULN, n/N1: 0
  Participants with postbaseline Bilirubin Total (umol/L) >=20 * ULN, n/N1: 0
Bilirubin Total; Atogepant 60 mg QD (N = 186)
  Participants with postbaseline Bilirubin Total (umol/L) >=1 * ULN, (%): (4.4) %
  Participants with postbaseline Bilirubin Total (umol/L) >=1 * ULN, n/N1: 8/181
  Participants with postbaseline Bilirubin Total (umol/L) >=1.5 * ULN, (%): (1.1) %
  Participants with postbaseline Bilirubin Total (umol/L) >=1.5 * ULN, n/N1: 2/181
  Participants with postbaseline Bilirubin Total (umol/L) >=2 * ULN, n/N1: 0
  Participants with postbaseline Bilirubin Total (umol/L) >=3 * ULN, n/N1: 0
  Participants with postbaseline Bilirubin Total (umol/L) >=5 * ULN, n/N1: 0
  Participants with postbaseline Bilirubin Total (umol/L) >=10 * ULN, n/N1: 0
  Participants with postbaseline Bilirubin Total (umol/L) >=20 * ULN, n/N1: 0
